Reference: US20250269039A1, “THERAPEUTIC-OLIGONUCLEOTIDES ACTIVATED BY NUCLEASES” (priority 2020, published 2025)
≈ marks a conversion by molar mass, not a printed value. Like-named read-outs stand apart in the source and are kept apart here.

Legend:
[1] = test system: P. mirabilis ATCC 25933; assay: Broth microdilution MIC and growth inhibition (control bacteria); format: cell-based, Proteus mirabilis; settings: for MIC: TOUCAN as NA equivalent
Description: (§1) Bacteria strains. S. aureus NCTC 12493 (MRSA), S. aureus ATCC 29213 (MSSA), S. aureus ATCC 43300 (MRSA), S. aureus ATCC 1707 (MRSA), S. aureus ATCC 1717 (MRSA), S. aureus ATCC 1747 (MRSA), S. aureus ATCC 1761 (MRSA), S. aureus ATCC 1766 (MRSA), S. aureus ATCC 1768 (MRSA), S. epidermidis ATCC 35984, E. coli ATCC 25922, K. pneumoniae ATCC 13883, P. mirabilis ATCC 25933, S. enterica ATCC 14028 and P. aeruginosa ATCC 10145 strains were used in this study. Bacteria were initially inoculated onto tryptone soy agar with 5% defibrinated sheep blood (Thermo Fisher Scientific, Inc., Waltham, MA, USA) and incubated at 37° C. for 24 hours. Then, single colonies of each strain were transferred to tryptone soy broth (Thermo Fisher Scientific) for the nuclease activity assay or antimicrobial susceptibility testing, respectively.
(§2) Antimicrobial susceptibility testing. Minimal inhibitory concentrations (MIC) of all nucleoside analogues and TOUCANs against each bacteria strain were determined using broth microdilution method. A single colony obtained from overnight culture on tryptone soy agar with 5% defibrinated sheep blood was inoculated in cation-adjusted Mueller Hinton Broth and adjusted to 10^6 CFU/mL. TOUCANs were prepared in PBS+/+ (treatment) and serial dilutions were made in 96-well polystyrene round bottom microwell plates with 50 μL final volume for each concentration. PBS+/+ was used as untreated control. Next, 50 μL bacteria solutions were added to each well to a final bacteria concentration of 5×10^5 CFU/mL. Plates were incubated at 37° C. in Cytation 1 Cell Imaging Multimode Reader. Growth curves were obtained by measuring optical densities at 600 nm every 10 minutes for 18 hours using Cytation 1 Cell Imaging Multimode Reader. In addition, visual inspection of the plates was carried out after 18 hours and photographs were taken. MICs were defined as the lowest drug concentration in the microwell at which bacterial growth was not visible at the end of the incubation period. Besides MIC determination, specificity of TOUCAN 7mGe was also shown with subcultures on chromogenic media. For this purpose, 5 μL of different concentrations of each strain were inoculated onto CHROM agar Orientation Media (Becton Dickinson) and the bacterial growth of each bacteria strain tested was observed by naked eye after incubation at 37° C. for 24 hours. Finally, photographs of the chromogenic media were taken.

[2] = test system: S. aureus ATCC 1747 (MRSA); assay: Broth microdilution MIC and growth inhibition; format: cell-based, Staphylococcus aureus; settings: for MIC: 18 h, TOUCAN as NA equivalent
Description: as §1, §2

[3] = test system: S. aureus ATCC 1768 (MRSA); assay: Broth microdilution MIC and growth inhibition; format: cell-based, Staphylococcus aureus; settings: for MIC: 18 h, TOUCAN as NA equivalent
Description: as §1, §2

[4] = test system: S. aureus ATCC 43300 (MRSA); assay: Broth microdilution MIC and growth inhibition; format: cell-based, Staphylococcus aureus; settings: for MIC: 18 h, TOUCAN as NA equivalent
Description: as §1, §2

[5] = test system: S. aureus ATCC 1707 (MRSA); assay: Broth microdilution MIC and growth inhibition; format: cell-based, Staphylococcus aureus; settings: for MIC: 18 h, TOUCAN as NA equivalent
Description: as §1, §2

[6] = test system: S. aureus ATCC 1717 (MRSA); assay: Broth microdilution MIC and growth inhibition; format: cell-based, Staphylococcus aureus; settings: for MIC: 18 h, TOUCAN as NA equivalent
Description: as §1, §2

[7] = test system: S. aureus ATCC 29213 (MSSA); assay: Broth microdilution MIC and growth inhibition; format: cell-based, Staphylococcus aureus
Description: as §1, §2

[8] = test system: S. aureus NCTC 12493 (MRSA); assay: Broth microdilution MIC and growth inhibition; format: cell-based, Staphylococcus aureus
Description: as §1, §2

[9] = test system: S. aureus ATCC 1761 (MRSA); assay: Broth microdilution MIC and growth inhibition; format: cell-based, Staphylococcus aureus; settings: for MIC: 18 h, TOUCAN as NA equivalent
Description: as §1, §2

[10] = test system: S. aureus ATCC 1766 (MRSA); assay: Broth microdilution MIC and growth inhibition; format: cell-based, Staphylococcus aureus; settings: for MIC: 18 h, TOUCAN as NA equivalent; for growth inhibition, dose response: ATCC-1766 (MRSA), FIGS. 5e-f
Description: as §1, §2

[11] = Staphylococcus aureus, read-out: MIC

O=c1[nH]c(=O)n([C@H]2C[C@H](O)[C@@H](CO)O2)cc1F [Floxuridine, reference compound]
MIC ([1]; Proteus mirabilis, ATCC25933, 18 h, read-out: MIC): 5 µg/mL
MIC [2, 11]: 0.005 µg/mL
MIC [3, 11]: 0.04 µg/mL
MIC [4, 11]: 0.04 µg/mL
MIC [5, 11]: 0.04 µg/mL
MIC [6, 11]: 0.08 µg/mL
MIC ([7]; Staphylococcus aureus, S. aureus ATCC 29213 (MSSA), 18 h, TOUCAN as NA equivalent, read-out: MIC): 0.08 µg/mL
MIC ([7]; Staphylococcus aureus, Table 1, S. aureus ATCC 29213, read-out: MIC): 0.08 µg/mL (≈ 0.325 µM)
% Growth inhibition ([7]; Table 1, S. aureus ATCC 29213, mean ± SD, n = 3): 93.1 ± 0.3%
MIC ([8]; Staphylococcus aureus, S. aureus NCTC 12493 (MRSA), 18 h, TOUCAN as NA equivalent, read-out: MIC): 0.32 µg/mL
MIC ([8]; Staphylococcus aureus, Table 1, S. aureus NCTC 12493, read-out: MIC): 0.32 µg/mL (≈ 1.3 µM)
% Growth inhibition ([8]; Table 1, S. aureus NCTC 12493, mean ± SD, n = 3): 87.9 ± 0.4%
MIC [9, 11]: 0.005 µg/mL
MIC ([10]; Staphylococcus aureus, S. aureus ATCC 1766 (MRSA), read-out: MIC): 0.04 µg/mL

mU-mU-mU-mU-T-T-Fx [TOUCAN 7mFx]
MIC ([1]; 18 h): >40 µg/mL
TOUCAN % Growth inhibition ([1]; mean ± SD, n = 3): 45.5 ± 0.4%
TOUCAN MIC/NA MIC TOUCAN Efficacy Ratio (TER) [2]: 500
MIC [2]: 2.5 µg/mL
TOUCAN % Growth inhibition ([2]; mean ± SD, n = 3): 92.8 ± 0.7%
TOUCAN MIC/NA MIC TOUCAN Efficacy Ratio (TER) [3]: 62.5
MIC [3]: 2.5 µg/mL
TOUCAN % Growth inhibition ([3]; mean ± SD, n = 3): 93.2 ± 0.3%
TOUCAN MIC/NA MIC TOUCAN Efficacy Ratio (TER) [4]: 1000
MIC [4]: 40 µg/mL
TOUCAN % Growth inhibition ([4]; mean ± SD, n = 3): 92.8 ± 0.7%
TOUCAN MIC/NA MIC TOUCAN Efficacy Ratio (TER) [5]: 125
MIC [5]: 5 µg/mL
TOUCAN % Growth inhibition ([5]; mean ± SD, n = 3): 94.6 ± 0.08%
TOUCAN MIC/NA MIC TOUCAN Efficacy Ratio (TER) [6]: 125
MIC [6]: 10 µg/mL
TOUCAN % Growth inhibition ([6]; mean ± SD, n = 3): 94.5 ± 0.04%
TOUCAN MIC/NA MIC TOUCAN Efficacy Ratio (TER) ([7]; S. aureus ATCC 29213 (MSSA)): 250
MIC ([7]; S. aureus ATCC 29213 (MSSA), 18 h, TOUCAN as NA equivalent): 20 µg/mL
TOUCAN % Growth inhibition ([7]; S. aureus ATCC 29213 (MSSA), mean ± SD, n = 3): 92.3 ± 0.09%
TOUCAN MIC/NA MIC TOUCAN Efficacy Ratio (TER) ([8]; S. aureus NCTC 12493 (MRSA)): 125
MIC ([8]; S. aureus NCTC 12493 (MRSA), 18 h, TOUCAN as NA equivalent): 40 µg/mL
TOUCAN % Growth inhibition ([8]; S. aureus NCTC 12493 (MRSA), mean ± SD, n = 3): 91.5 ± 0.00%
TOUCAN MIC/NA MIC TOUCAN Efficacy Ratio (TER) [9]: 500
MIC [9]: 2.5 µg/mL
TOUCAN % Growth inhibition ([9]; mean ± SD, n = 3): 93.9 ± 0.05%
growth inhibition, dose response ([10]; 0.31 μg/mL): partial inhibition
growth inhibition, dose response ([10]; concentrations from 0.62 to 10 μg/mL): efficient inhibition
TOUCAN MIC/NA MIC TOUCAN Efficacy Ratio (TER) ([10]; S. aureus ATCC 1766 (MRSA)): 15.5
MIC ([10]; S. aureus ATCC 1766 (MRSA)): 0.62 µg/mL
TOUCAN % Growth inhibition ([10]; S. aureus ATCC 1766 (MRSA), mean ± SD, n = 3): 93.6 ± 0.1%
